Each structure is given as a SMILES string.

The target of one experiment is T1, mGlyT-1b (Mus musculus, UniProt P28571).
T1 construct: host or cells: Flp-in-CHO
T1 sequence (P28571 1-651 isoform P28571-2): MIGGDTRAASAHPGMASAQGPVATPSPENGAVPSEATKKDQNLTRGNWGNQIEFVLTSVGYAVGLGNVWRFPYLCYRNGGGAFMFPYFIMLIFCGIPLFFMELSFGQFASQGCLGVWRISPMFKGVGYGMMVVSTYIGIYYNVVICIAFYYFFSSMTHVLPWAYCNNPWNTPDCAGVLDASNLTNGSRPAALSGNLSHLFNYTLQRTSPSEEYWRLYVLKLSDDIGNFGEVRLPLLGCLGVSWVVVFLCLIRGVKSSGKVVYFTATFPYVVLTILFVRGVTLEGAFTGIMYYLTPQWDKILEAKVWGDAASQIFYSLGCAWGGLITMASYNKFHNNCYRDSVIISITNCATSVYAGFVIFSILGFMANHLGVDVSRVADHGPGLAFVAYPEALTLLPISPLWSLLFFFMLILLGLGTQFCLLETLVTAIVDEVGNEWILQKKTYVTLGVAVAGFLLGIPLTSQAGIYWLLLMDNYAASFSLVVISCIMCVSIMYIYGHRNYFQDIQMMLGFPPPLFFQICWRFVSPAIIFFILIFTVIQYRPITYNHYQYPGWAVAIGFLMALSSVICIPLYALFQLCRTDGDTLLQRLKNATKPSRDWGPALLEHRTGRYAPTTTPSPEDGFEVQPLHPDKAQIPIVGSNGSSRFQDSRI
Put plainly: Glycine Uptake Inhibition Assay (mGlyT-1b). In kind it is cell-based. Particulars: IC50 data.
Turning to `Cc1cc(C(F)(F)F)cc(C)c1C(=O)N[C@H]1CCC[C@H]1N1CCCC1` (relative stereo) [Example 132, 2,6-Dimethyl-N-((cis)-2-pyrrolidin-1-yl-cyclopentyl)-4-trifluoromethyl-benzamide], the IC50 is 36.5 nM.
Compound `CCc1cccc(C2CC2)c1C(=O)N[C@@H]1CCC[C@@H]1N1CCCC1` (single isomer, unassigned) [Example 120, (−)-cis-2-Cyclopropyl-6-ethyl-N-(2-pyrrolidin-1-yl-cyclopentyl)-benzamide] showed an IC50 of 55.2 nM.
`O=C(NC1CCCC1N1CCCC1)c1ccc(C(F)(F)F)cc1C1CC1` (single isomer, unassigned) [Example 96, (+2-Cyclopropyl-N-cis-(-2-pyrrolidin-1-yl-cyclopentyl)-4-trifluoromethyl-benzamide]: the IC50 worked out at 42.8 nM.
Still for that read-out and setting: the value for `CCc1cc(C(F)(F)F)ccc1C(=O)N[C@H]1CCC[C@H]1N1CCCC1` (relative stereo) [Example 80, cis-2-Ethyl-N-(2-pyrrolidin-1-yl-cyclopentyl)-4-trifluoromethyl-benzamide] was 89.6 nM; that for `CCc1cccc(C2CC2)c1C(=O)N[C@@H]1CCC[C@@H]1N1CCCC1` (single isomer, unassigned) [Example 121, (+)-cis-2-Cyclopropyl-6-ethyl-N-(2-pyrrolidin-1-yl-cyclopentyl)-benzamide] was 36.1 nM; that for `CSc1cc(C(F)(F)F)ccc1C(=O)N[C@@H]1CCC[C@@H]1N1CCCC1` (single isomer, unassigned) [Example 85, (−)-2-Methylsulfanyl-N-(2-pyrrolidin-1-yl-cyclopentyl)-4-trifluoromethyl-benzamide] was 60.4 nM.
`COc1cc(C(F)(F)F)cc(OC(F)F)c1C(=O)N[C@H]1CCC[C@H]1N1CCCC1` (relative stereo) [Example 133, 2-Difluoromethoxy-6-methoxy-N-((cis)-2-pyrrolidin-1-yl-cyclopentyl)-4-trifluoromethyl-benzamide]: it took 90.8 nM to reach half-maximal inhibition (IC50).
Same read-out and setting: the value for `COc1cc(C(F)(F)F)cc(SC)c1C(=O)N[C@@H]1CCC[C@@H]1N1CCCC1` (single isomer, unassigned) [Example 58, (−)-2-Methoxy-6-methylsulfanyl-N-(2-pyrrolidin-1-yl-cyclopentyl)-4-trifluoromethyl-benzamide] was 27.6 nM.
`CCc1cc(C(F)(F)F)cc(C(F)(F)F)c1C(=O)N[C@H]1CCC[C@H]1N1CCCC1` (relative stereo) [Example 137, 2-Ethyl-N-((cis)-2-pyrrolidin-1-yl-cyclopentyl)-4,6-bis-trifluoromethyl-benzamide]: the IC50 came out at 46.2 nM.
For the compound `O=C(N[C@H]1CCC[C@H]1N1CCCC1)c1c(F)cc(C(F)(F)F)cc1C(F)(F)F` (relative stereo) [Example 105, cis-2-Fluoro-N-(2-pyrrolidin-1-yl-cyclopentyl)-4,6-bis-trifluoromethyl-benzamide], half-maximal inhibition (IC50) required 75.1 nM.
`COc1cc(C(F)(F)F)cc(Br)c1C(=O)N[C@H]1CCC[C@H]1N1CCCC1` (racemic) [Example 101, 2-Bromo-6-methoxy-N-cis-(2-pyrrolidin-1-yl-cyclopentyl)-4-trifluoromethyl-benzamide] registered an IC50 of 94.8 nM.

The same experiment, now with this note: read-out: IC50 data.
Turning to `O=C(NC1CCCC1NC1CCCC1)c1ccc(C(F)(F)F)cc1C1CC1` (single isomer, unassigned; (+)) [Example 109, (+)-cis-N-2-Cyclopentylamino-cyclopentyl)-2-cyclopropyl-4-trifluoromethyl-benzamide], the IC50 amounted to 25.3 nM.
In the case of `O=C(N[C@H]1CCC[C@H]1NC1CCCC1)c1ccc(C(F)(F)F)cc1C1CC1` (racemic) [Example 102, N-((1SR,2RS)-2-Cyclopentylamino-cyclopentyl)-2-cyclopropyl-4-trifluoromethyl-benzamide], the half-inhibitory concentration (IC50) stood at 35.1 nM.
Take `COc1cc(C(F)(F)F)cc(SC)c1C(=O)N[C@H]1CCC[C@H]1NC1CCCC1` (single isomer, unassigned) [Example 68, (−)-N-(2-Cyclopentylamino-cyclopentyl)-2-methoxy-6-methylsulfanyl-4-trifluoromethyl-benzamide]: the IC50 stood at 19.4 nM.
Still for that read-out and setting: the value for `COc1cc(C(F)(F)F)cc(SC)c1C(=O)N[C@@H]1CCC[C@@H]1NC1CCC1` (racemic) [Example 61, N-((1RS,2SR)-2-Cyclobutylamino-cyclopentyl)-2-methoxy-6-methylsulfanyl-4-trifluoromethyl-benzamide] was 65.9 nM; that for `CCc1cc(C(F)(F)F)ccc1C(=O)N[C@H]1CCC[C@H]1NC1CCCC1` (racemic) [Example 89, cis-N-(2-Cyclopentylamino-cyclopentyl)-2-ethyl-4-trifluoromethyl-benzamide] was 79.4 nM.

Usually IC50 stands for the concentration at which inhibition is half-maximal.
